Several values for one entry are separate records, joined by “and”; a condition that tells them apart may be missing. Equal entries are not always repeated.
Assays:
[1] = xn = mol fraction of the nth substance listed; details: 101.33 kPa, Liquid
[2] = refractive index (Na D-line) (dimensionless); xn = mol fraction of the nth substance listed; details: 101.33 kPa, Liquid
[3] = 101.33 kPa, Liquid
[4] = refractive index (Na D-line) (dimensionless); details: 101.33 kPa, Liquid

CCCCN(CCCC)CCCC [tributylamine] + CCCCCCCCCCCCCC
Details | mass density, 298.15 K [kg/m3] | mass density, 303.15 K [kg/m3] | mass density, 308.15 K [kg/m3] | refractive index, 298.15 K | refractive index, 303.15 K | refractive index, 308.15 K | speed of sound, 298.15 K [m/s] | viscosity, 298.15 K [mPa·s] | viscosity, 303.15 K [mPa·s] | viscosity, 308.15 K [mPa·s]
[1], x1 = 0.1081 | 761.9 | 758.1 | 754.4 | – | – | – | 1303 | 1.93 | 1.75 | 1.57
[1], x1 = 0.2058 | 762.9 | 759.2 | 755.5 | – | – | – | 1292 | 1.842 | 1.671 | 1.499
[1], x1 = 0.2802 | 763.8 | 760 | 756.3 | – | – | – | 1287 | 1.774 | 1.612 | 1.45
[1], x1 = 0.4095 | 765.3 | 761.5 | 757.8 | – | – | – | 1283 | 1.668 | 1.518 | 1.368
[1], x1 = 0.5112 | 766.6 | 762.9 | 759.1 | – | – | – | 1279 | 1.585 | 1.448 | 1.31
[1], x1 = 0.6101 | 767.9 | 764.2 | 760.5 | – | – | – | 1275 | 1.511 | 1.386 | 1.261
[1], x1 = 0.7051 | 769.3 | 765.5 | 761.9 | – | – | – | 1272 | 1.441 | 1.329 | 1.216
[1], x1 = 0.7999 | 770.9 | 767 | 763.1 | – | – | – | 1270 | 1.375 | 1.274 | 1.173
[1], x1 = 0.8953 | 772.4 | 768.4 | 764.4 | – | – | – | 1267 | 1.309 | 1.222 | 1.135
[1], x1 = 1 | 773.9 | 769.2 | 765.7 | – | – | – | 1262 | 1.239 | 1.124 | 1.103
[2], x1 = 0.1081 | – | – | – | 1.4283 | 1.4258 | 1.4234 | – | – | – | –
[2], x1 = 0.2058 | – | – | – | 1.4282 | 1.4257 | 1.4234 | – | – | – | –
[2], x1 = 0.2802 | – | – | – | 1.428 | 1.4256 | 1.4232 | – | – | – | –
[2], x1 = 0.4095 | – | – | – | 1.4278 | 1.4254 | 1.4231 | – | – | – | –
[2], x1 = 0.5112 | – | – | – | 1.4278 | 1.4254 | 1.423 | – | – | – | –
[2], x1 = 0.6101 | – | – | – | 1.4278 | 1.4254 | 1.423 | – | – | – | –
[2], x1 = 0.7051 | – | – | – | 1.4279 | 1.4255 | 1.4231 | – | – | – | –
[2], x1 = 0.7999 | – | – | – | 1.4281 | 1.4256 | 1.4231 | – | – | – | –
[2], x1 = 0.8953 | – | – | – | 1.428 | 1.4255 | 1.4231 | – | – | – | –
[2], x1 = 1 | – | – | – | 1.4276 | 1.4255 | 1.4228 | – | – | – | –

C1CCOC1 [tetrahydrofuran]
Details | mass density, 298.15 K [kg/m3] | mass density, 303.15 K [kg/m3] | mass density, 308.15 K [kg/m3] | refractive index, 298.15 K | refractive index, 303.15 K | refractive index, 308.15 K | speed of sound, 298.15 K [m/s] | viscosity, 298.15 K [mPa·s] | viscosity, 303.15 K [mPa·s] | viscosity, 308.15 K [mPa·s]
[3] | 882.9 | 877.5 | 871.2 | – | – | – | 1288 | 0.485 | 0.46 | 0.439
[4] | – | – | – | 1.4049 | 1.4026 | 1.3998 | – | – | – | –

C1CCOC1 [tetrahydrofuran] + CCCCN(CCCC)CCCC
x2 = 0
Details | mass density, 298.15 K [kg/m3] | mass density, 303.15 K [kg/m3] | mass density, 308.15 K [kg/m3] | refractive index, 298.15 K | refractive index, 303.15 K | refractive index, 308.15 K | speed of sound, 298.15 K [m/s] | viscosity, 298.15 K [mPa·s] | viscosity, 303.15 K [mPa·s] | viscosity, 308.15 K [mPa·s]
[1] | 882.9 | 877.5 | 871.2 | – | – | – | 1288 | 0.485 | 0.46 | 0.439
[2] | – | – | – | 1.4049 | 1.4026 | 1.3998 | – | – | – | –

ClC=C(Cl)Cl [trichloroethene]
Details | mass density, 298.15 K [kg/m3] | mass density, 303.15 K [kg/m3] | mass density, 308.15 K [kg/m3] | refractive index, 298.15 K | refractive index, 303.15 K | refractive index, 308.15 K | speed of sound, 298.15 K [m/s] | viscosity, 298.15 K [mPa·s] | viscosity, 303.15 K [mPa·s] | viscosity, 308.15 K [mPa·s]
[3] | 1456.7 | 1447.1 | 1439.5 | – | – | – | 1028 | 0.595 | 0.571 | 0.549
[4] | – | – | – | 1.4752 | 1.4722 | 1.469 | – | – | – | –

c1ccncc1 [pyridine]
Details | mass density, 298.15 K [kg/m3] | mass density, 303.15 K [kg/m3] | mass density, 308.15 K [kg/m3] | refractive index, 298.15 K | refractive index, 303.15 K | refractive index, 308.15 K | speed of sound, 298.15 K [m/s] | viscosity, 298.15 K [mPa·s] | viscosity, 303.15 K [mPa·s] | viscosity, 308.15 K [mPa·s]
[3] | 979 | 973.7 | 968.6 | – | – | – | 1412 | 0.885 | 0.82 | 0.766
[4] | – | – | – | 1.5062 | 1.5025 | 1.5016 | – | – | – | –

CCCCN(CCCC)CCCC [tributylamine]
Details | mass density, 298.15 K | mass density, 303.15 K [kg/m3] | mass density, 308.15 K [kg/m3] | refractive index, 298.15 K | refractive index, 303.15 K | refractive index, 308.15 K | speed of sound, 298.15 K [m/s] | viscosity, 298.15 K [mPa·s] | viscosity, 303.15 K | viscosity, 308.15 K
[3] | 773.9 kg/m3 and 773.3 kg/m3 | 769.2 | 765.7 | – | – | – | 1262 | 1.239 | 1.123 mPa·s and 1.124 mPa·s | 1.028 mPa·s and 1.02 mPa·s and 1.103 mPa·s
[4] | – | – | – | 1.4276 | 1.4255 and 1.4254 | 1.4228 | – | – | – | –

c1ccncc1 [pyridine] + CCCCN(CCCC)CCCC
x2 = 0
Details | mass density, 298.15 K [kg/m3] | mass density, 303.15 K [kg/m3] | mass density, 308.15 K [kg/m3] | refractive index, 298.15 K | refractive index, 303.15 K | refractive index, 308.15 K | speed of sound, 298.15 K [m/s] | viscosity, 298.15 K [mPa·s] | viscosity, 303.15 K [mPa·s] | viscosity, 308.15 K [mPa·s]
[1] | 979 | 973.7 | 968.6 | – | – | – | 1412 | 0.885 | 0.82 | 0.766
[2] | – | – | – | 1.5062 | 1.5025 | 1.5016 | – | – | – | –

CCCCCCCCCCCCCC [tetradecane] + CCCCN(CCCC)CCCC
x2 = 0
Details | mass density, 298.15 K [kg/m3] | mass density, 303.15 K [kg/m3] | mass density, 308.15 K [kg/m3] | refractive index, 298.15 K | refractive index, 303.15 K | refractive index, 308.15 K | speed of sound, 298.15 K [m/s] | viscosity, 298.15 K [mPa·s] | viscosity, 303.15 K [mPa·s] | viscosity, 308.15 K [mPa·s]
[1] | 760.7 | 757 | 753.3 | – | – | – | 1315 | 2.032 | 1.827 | 1.653
[2] | – | – | – | 1.4282 | 1.426 | 1.4236 | – | – | – | –

Reference: the NIST ThermoML archive (doi:10.1021/je030147g)
